System: KRAS patient-derived spheroids with HUVEC/MSC, viability
Experiment: Anticancer human tumor 941728-121-R-J1-PDC patient-derived lung adenocarcinoma cell line growth inhibition [KRAS2]
Conditions: for IC50: curve of first compound; for viability, T/C: stronger effect = lower value
How it was run: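 KRAS-mutant tumor cells were grown as spheroids with HUVEC endothelial cells and human MSCs as stroma. Targeted agents were tested alone and with KRAS pathway inhibitors. Doses started at or near clinical Cmax, or 10 microM, descending half-log.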

[1] = second compound 0.1 µM, first compound 0.0316 µM
[2] = second compound 0.1 µM, first compound 0.1 µM
[3] = second compound 0.1 µM, first compound 0.316 µM
[4] = second compound 0.1 µM, first compound 1 µM
[5] = second compound 0.1 µM, first compound 3.16 µM
[6] = second compound 0.1 µM, first compound 10 µM
[7] = second compound 0.316 µM, first compound 0.0316 µM
[8] = second compound 0.316 µM, first compound 0.1 µM
[9] = second compound 0.316 µM, first compound 0.316 µM
[10] = second compound 0.316 µM, first compound 1 µM
[11] = second compound 0.316 µM, first compound 3.16 µM
[12] = second compound 0.316 µM, first compound 10 µM
[13] = second compound 1 µM, first compound 0.0316 µM
[14] = second compound 1 µM, first compound 0.1 µM
[15] = second compound 1 µM, first compound 0.316 µM
[16] = second compound 1 µM, first compound 1 µM
[17] = second compound 1 µM, first compound 3.16 µM
[18] = second compound 1 µM, first compound 10 µM
[19] = second compound 3.16 µM, first compound 0.0316 µM
[20] = second compound 3.16 µM, first compound 0.1 µM
[21] = second compound 3.16 µM, first compound 0.316 µM
[22] = second compound 3.16 µM, first compound 1 µM
[23] = second compound 3.16 µM, first compound 3.16 µM
[24] = second compound 3.16 µM, first compound 10 µM
[25] = second compound 0.1 µM, first compound 0.01 µM
[26] = second compound 0.316 µM, first compound 0.01 µM
[27] = second compound 1 µM, first compound 0.01 µM
[28] = second compound 3.16 µM, first compound 0.01 µM
[29] = second compound 10 µM, first compound 0.01 µM
[30] = second compound 10 µM, first compound 0.0316 µM
[31] = second compound 10 µM, first compound 0.1 µM
[32] = second compound 10 µM, first compound 0.316 µM
[33] = second compound 10 µM, first compound 1 µM
[34] = second compound 10 µM, first compound 3.16 µM
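Note: spheroids exposed to agents for seven days before readout.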

Structure (SMILES) | IC50 (second compound 0.1 µM) [nM] | IC50 (second compound 0.316 µM) [nM] | IC50 (second compound 1 µM) [nM] | IC50 (second compound 3.16 µM) [nM] | viability, T/C [1] [%] | viability, T/C [2] [%] | viability, T/C [3] [%] | viability, T/C [4] [%] | viability, T/C [5] [%] | viability, T/C [7] [%] | viability, T/C [8] [%] | viability, T/C [9] [%] | viability, T/C [10] [%] | viability, T/C [11] [%] | viability, T/C [13] [%] | viability, T/C [14] [%] | viability, T/C [15] [%] | viability, T/C [16] [%] | viability, T/C [17] [%] | viability, T/C [19] [%] | further results
CC(C)NCC(C(=O)N1CCN(c2ncnc3c2C(C)CC3O)CC1)c1ccc(Cl)cc1 (stereo not given) + C=CC(=O)N1CCN(c2nc(OCC3CCCN3C)nc3c2CCN(c2cccc4cccc(C)c24)C3)CC1CC#N | < 31.6 | < 31.6 | < 31.6 | < 31.6 | 27.3 | 30 | 22.8 | 19.5 | 14.5 | 26.8 | 26.6 | 26.5 | 18.9 | 15.7 | 27.4 | 24.1 | 18.9 | 15 | 12.5 | 0.13 | IC50 (second compound 0.0316 µM): < 31.6 nM; viability, T/C (second compound 0.0316 µM, first compound 0.0316 µM): 29.1%; viability, T/C (second compound 0.0316 µM, first compound 0.1 µM): 29.5%; viability, T/C (second compound 0.0316 µM, first compound 0.316 µM): 23.4%; viability, T/C (second compound 0.0316 µM, first compound 1 µM): 23.5%; viability, T/C (second compound 0.0316 µM, first compound 3.16 µM): 18%; viability, T/C (second compound 0.0316 µM, first compound 10 µM): 7.87%; viability, T/C [6]: 7.59%; viability, T/C [12]: 8.89%; viability, T/C [18]: 4.68%; viability, T/C [20]: 0.12%; viability, T/C [21]: 0.12%; viability, T/C [22]: 0.15%; viability, T/C [23]: 0.18%; viability, T/C [24]: 0.25%
CC(=O)OC12COC1CC(O)C1(C)C(=O)C(O)C3=C(C)C(OC(=O)C(O)C(NC(=O)OC(C)(C)C)c4ccccc4)CC(O)(C(OC(=O)c4ccccc4)C21)C3(C)C (stereo not given) + CC1OCC2(CCN(c3cnc(Sc4ccnc(N)c4Cl)c(N)n3)CC2)C1N | < 10 | < 10 | < 10 | < 10 | 34.6 | 33.9 | 39.2 | 39.5 | 41.6 | 34.4 | 30.2 | 32.1 | 37.2 | 38.9 | 52.4 | 44 | 45.9 | 53.4 | 54 | 23.3 | IC50 (second compound 10 µM): < 10 nM; viability, T/C [25]: 42.3%; viability, T/C [26]: 37.1%; viability, T/C [27]: 49.8%; viability, T/C [28]: 24.4%; viability, T/C [20]: 21.5%; viability, T/C [21]: 27.3%; viability, T/C [22]: 29.8%; viability, T/C [23]: 27.4%; viability, T/C [29]: 26.5%; viability, T/C [30]: 25.6%; viability, T/C [31]: 23.1%; viability, T/C [32]: 24.8%; viability, T/C [33]: 30.1%; viability, T/C [34]: 30.2%
CC(=O)OC12COC1CC(O)C1(C)C(=O)C(O)C3=C(C)C(OC(=O)C(O)C(NC(=O)OC(C)(C)C)c4ccccc4)CC(O)(C(OC(=O)c4ccccc4)C21)C3(C)C (stereo not given) + CNCc1ccccc1-c1csc(C(C)Nc2nc(C)nc3cc(OC)c(OC)cc23)c1 | < 10 | < 10 | < 10 | < 10 | 37.4 | 32 | 38.3 | 34.3 | 41.8 | 28 | 27 | 25.9 | 29.3 | 30.2 | 34.3 | 34.5 | 36 | 38 | 33 | 0.11 | IC50 (second compound 10 µM): < 10 nM; viability, T/C [25]: 35.7%; viability, T/C [26]: 28%; viability, T/C [27]: 29.2%; viability, T/C [28]: 18.7%; viability, T/C [20]: 0.09%; viability, T/C [21]: 0.11%; viability, T/C [22]: 0.1%; viability, T/C [23]: 31.5%; viability, T/C [29]: 0.14%; viability, T/C [30]: 0.09%; viability, T/C [31]: 0.1%; viability, T/C [32]: 0.13%; viability, T/C [33]: 28.4%; viability, T/C [34]: 0.21%
Cn1nccc1Nc1nccc(-c2cc3c(s2)C(C)(C)N(CCN2CCOCC2)C3=O)n1 + CC1OCC2(CCN(c3cnc(Sc4ccnc(N)c4Cl)c(N)n3)CC2)C1N | 47.7 | < 31.6 | < 31.6 | < 31.6 | 53.7 | 43.2 | 38.1 | 36 | 29.2 | 45.1 | 41.5 | 34.3 | 34.9 | 25.8 | 38.2 | 39.2 | 31.3 | 30 | 23.8 | 33.5 | IC50 (second compound 10 µM): < 31.6 nM; viability, T/C [6]: 35.1%; viability, T/C [12]: 25%; viability, T/C [18]: 18.9%; viability, T/C [20]: 30.4%; viability, T/C [21]: 30.9%; viability, T/C [22]: 24.4%; viability, T/C [23]: 16.3%; viability, T/C [24]: 18.3%; viability, T/C [30]: 29%; viability, T/C [31]: 29.5%; viability, T/C [32]: 21.5%; viability, T/C [33]: 15.6%; viability, T/C [34]: 10.8%; viability, T/C (second compound 10 µM, first compound 10 µM): 13.1%

From PubChem BioAssay AID1963862 (Molecular Pharmacology Branch, DTP, NCI, 2024)
